Measured values reported in ChEMBL document CHEMBL4622939, “Synthesis and anti-proliferative activity of a novel 1,2,3-triazole tethered chalcone acetamide derivatives” (Bioorg Med Chem Lett, 2020).

Key:
Format in all cases: functional, cell-based
[1] = test system: HeLa; assay: Antiproliferative activity against human HeLa cells assessed as cell growth inhibition by MTT assay
[2] = test system: MCF7; assay: Antiproliferative activity against human MCF7 cells assessed as cell growth inhibition by MTT assay
[3] = test system: A549; assay: Antiproliferative activity against human A549 cells assessed as cell growth inhibition by MTT assay
[4] = test system: SK-N-SH; assay: Antiproliferative activity against human SK-N-SH cells assessed as cell growth inhibition by MTT assay

SMILES	IC50 [1] [µM]	IC50 [2] [µM]	IC50 [3] [µM]	IC50 [4] [µM]
CCCCCCCCCCn1cc(/C=C/C(=O)c2ccc(N)cc2)nn1	73.5	52.6	35.6	83.4
CCCCCCCCn1cc(/C=C/C(=O)c2ccc(NC(=O)CN3CCN(c4ccc([N+](=O)[O-])cc4)CC3)cc2)nn1	30.2	49.1	45.4	51.4
CCCCCCCCn1cc(/C=C/C(=O)c2ccc(NC(=O)CN3CCN(c4ccccc4OC)CC3)cc2)nn1	26.8	30	34	21.5
O=C(CN1CCN(c2ccccc2)CC1)Nc1ccc(C(=O)/C=C/c2cn(Cc3ccc(Br)cc3)nn2)cc1	79.7	49.2	42.1	72.4
CCCCCCCCn1cc(/C=C/C(=O)c2ccc(N)cc2)nn1	26.9	31	26.9	28.8
CC(C)(C)OC(=O)N1CCN(CC(=O)Nc2ccc(C(=O)/C=C/c3cn(Cc4ccc(Br)cc4)nn3)cc2)CC1	18.9	31	38.4	25.8
CCCCCCCCCCn1cc(/C=C/C(=O)c2ccc(NC(=O)CN3CCN(c4ccccc4F)CC3)cc2)nn1	47.8	40.4	57	34.4
CCCCCCCCn1cc(/C=C/C(=O)c2ccc(NC(=O)CN3CCN(c4ccccc4)CC3)cc2)nn1	33.8	31.9	52.4	41.4
CCCCCCCCn1cc(/C=C/C(=O)c2ccc(NC(=O)CN3CCN(C(=O)OC(C)(C)C)CC3)cc2)nn1	32	98.4	43.3	38
O=C(CN1CCN(c2ccc([N+](=O)[O-])cc2)CC1)Nc1ccc(C(=O)/C=C/c2cn(Cc3ccc(Br)cc3)nn2)cc1	26.6	31.6	45.5	26.4
CCCCCCCCCCn1cc(/C=C/C(=O)c2ccc(NC(=O)CBr)cc2)nn1	7.41	9.76	9.74	8.68
CCCCCCCCCCn1cc(/C=C/C(=O)c2ccc(NC(=O)CN3CCC(Cc4ccccc4)CC3)cc2)nn1	71.7	55.2	67.7	33.3
O=C(CN1CCN(c2ccccc2F)CC1)Nc1ccc(C(=O)/C=C/c2cn(Cc3ccc(Br)cc3)nn2)cc1	9.12	11.3	14.7	12.8
CCCCCCCCn1cc(/C=C/C(=O)c2ccc(NC(=O)CBr)cc2)nn1	8.42	12.9	11.6	8.46
O=C(CN1CCC(Cc2ccccc2)CC1)Nc1ccc(C(=O)/C=C/c2cn(Cc3ccc(Br)cc3)nn2)cc1	41.9	54.5	40	42.9
CCCCCCCCn1cc(/C=C/C(=O)c2ccc(NC(=O)CN3CCN(c4ccccc4F)CC3)cc2)nn1	33.8	68.6	47.1	60.3
CCCCCCCCCCn1cc(/C=C/C(=O)c2ccc(NC(=O)CN3CCN(c4ccccc4)CC3)cc2)nn1	59.1	> 100	52.1	39.5
CCCCCCCCCCn1cc(/C=C/C(=O)c2ccc(NC(=O)CN3CCN(C(=O)OC(C)(C)C)CC3)cc2)nn1	30.2	40	45.4	77.8
Nc1ccc(C(=O)/C=C/c2cn(Cc3ccc(Br)cc3)nn2)cc1	16.4	25.3	15.8	25.2
O=C(CBr)Nc1ccc(C(=O)/C=C/c2cn(Cc3ccc(Br)cc3)nn2)cc1	7.95	10.1	8.67	8.3
COc1ccccc1N1CCN(CC(=O)Nc2ccc(C(=O)/C=C/c3cn(Cc4ccc(Br)cc4)nn3)cc2)CC1	26.4	36.8	34	28
CCCCCCCCCCn1cc(/C=C/C(=O)c2ccc(NC(=O)CN3CCN(c4ccc([N+](=O)[O-])cc4)CC3)cc2)nn1	65.9	44.4	64.5	40.9
CCCCCCCCCCn1cc(/C=C/C(=O)c2ccc(NC(=O)CN3CCN(c4ccccc4OC)CC3)cc2)nn1	50.8	44.8	62.5	87.6
CCCCCCCCn1cc(/C=C/C(=O)c2ccc(NC(=O)CN3CCC(Cc4ccccc4)CC3)cc2)nn1	78.6	52.6	43.8	57
COc1cccc2c1C(=O)c1c(O)c3c(c(O)c1C2=O)C[C@@](O)(C(=O)CO)C[C@@H]3O[C@H]1C[C@H](N)[C@H](O)[C@H](C)O1 [DOXORUBICIN]	2.78	3.7	3.24	2.85
